PMC4783973, “Synthetic Human TLR9-LRR11 Peptide Attenuates TLR9 Signaling by Binding to and thus Decreasing Internalization of CpG Oligodeoxynucleotides” (International Journal of Molecular Sciences, 2016)
Read-outs that look alike come from different tables or passages of the source.

Legend:
NF-κB p65 subunit = assay: NF-κB activity assay, p65 subunit in nuclear extract of RAW264.7 cells (Trans^AM ELISA); type: cell-based; conditions: CpG ODN 1.5 μM; 4 h; n = 3
Experimental: Figure 3 Synthetic peptide (SP) inhibited NF-κB activation induced by CpG oligodeoxynucleotides (CpG ODN) in RAW264.7 cells. RAW264.7 cells (5.0 × 10^6 cells) grown in six-well plates were treated with 1.5 μM of ODN2006 (A) or ODN107 (B) preincubated with SP (0, 0.5, 1.5, or 4.5 μM) or unrelated peptide (URP) (4.5 μM) at 37 °C for 15 min. After incubation for 4 h, the cells were collected to extract nuclear proteins. The p65 subunit was detected using enzyme-linked immunosorbent assay (ELISA) kits. Data from one of three independent experiments are shown (n = 3). “*”, p < 0.05 vs. ODN2006 or ODN107; “**”, p < 0.01 vs. ODN2006 or ODN107; “#”, p > 0.05 vs. ODN2006 or ODN107.
(§1) The RAW264.7 cell line was purchased from American Type Culture Collection (ATCC, Manassas, VA, USA). Cells were cultured in DMEM (high glucose) medium containing 10% FCS in a 37 °C humidified atmosphere with 5% CO2. Cells diluted with 0.4% trypan blue in phosphate-buffered saline (PBS, 0.1 mM, pH 7.2–7.4) were counted using a hemocytometer.
RAW264.7 cells (5.0 × 10^6 cells) were placed in six-well plates for 4 h, and the supernatants were then replaced with fresh medium containing 1.5 μM of ODN2006 or ODN107 that had been preincubated with SP (0, 0.5, 1.5, or 4.5 μM) or URP (4.5 μM) at 37 °C for 15 min. After incubation for 4 h, the cells were collected to extract nuclear proteins. Equal amounts of each sample were used to detect the DNA binding activity of the NF-κB p65 subunit using Trans^AM NF-κB ELISA kits (Active Motif), according to the manufacturer’s instructions.

RAW264.7 cells [1] = assay: TNF-α and IL-6 release from RAW264.7 cells, both cytokines stated together (ELISA); type: cell-based, mouse; conditions: for effect on TNF-α and IL-6 release (CpG ODN stimulation): CpG ODN 1.5 μM, 6 h, n = 4 (Figure 1)
Experimental: Figure 1 Synthetic peptide (SP) decreased TNF-α and IL-6 release from RAW264.7 cells treated with CpG oligodeoxynucleotides (CpG ODN). RAW264.7 cells (4.0 × 10^5 cells) grown in 48-well plates were treated with 1.5 μM of ODN2006 or ODN107 preincubated with SP (0, 0.5, 1.5, or 4.5 μM) or unrelated peptide (URP) (4.5 μM) at 37 °C for 15 min. After incubation for 6 h, the supernatants were collected to detect TNF-α (A) and IL-6 (B) using enzyme-linked immunosorbent assay (ELISA) kits. Data from one of three independent experiments are shown (n = 4). “*”, p < 0.05 vs. ODN2006 or ODN107; “**”, p < 0.01 vs. ODN2006 or ODN107; “#”, p > 0.05 vs. ODN2006 or ODN107.
(§2) Experiments were performed as described in Figure 1. The concentrations of ODN2006, LPS, PAM3 and SP were 1.5 μM, 20 ng/mL, 5 μg/mL and 1.5 μM, respectively. Data from one of three independent experiments are shown (n = 3).
as §1
(§3) RAW264.7 cells (4.0 × 10^5 cells) were incubated in 48-well plates for 4 h, and supernatants were replaced with 0.4 mL of serum-free DMEM medium containing 1.5 μM of ODN2006 or ODN107, which had been preincubated with 0, 0.5, 1.5 or 4.5 μM of SP or 4.5 μM of URP at 37 °C for 15 min. After incubation for 6 h, the supernatants were collected to detect TNF-α and IL-6 concentrations using corresponding ELISA kits (eBioscience).

PAM3/TLR1/TLR2 = assay: PAM3CSK4 (TLR1/2)-induced TNF-α and IL-6 release from RAW264.7 cells (ELISA); type: cell-based, mouse; conditions: PAM3 5 μg/mL; n = 3 (Figure 2)
Experimental: as §2, §1, §3

[2] = cited from earlier work
Text: (§4) CpG ODN must be internalized within cells before activating TLR9 signaling and inducing cytokines release. Thus, interfering with CpG ODN internalization probably leads to reduced activation of TLR9 signaling.

TLR signaling = conditions: inhibitors of clathrin-mediated phagocytosis; ref [24]; cited from earlier work
Text: as §4

IκBα = IκBα degradation and phosphorylation in RAW264.7 cells (western blotting); type: cell-based; conditions: ODN2006 1.5 μM; 4 h
Experimental: Figure 4 Synthetic peptide (SP) decreased the phosphorylation of IκBα and ERK1/2 in RAW264.7 cells treated with CpG oligodeoxynucleotides (CpG ODN). RAW264.7 cells (1.0 × 10^7 cells) grown in 10-cm dishes were treated with 1.5 μM of ODN2006 (A) or ODN107 (B) pre-incubated with SP (0, 0.5, 1.5, or 4.5 μM) at 37 °C for 15 min. After incubation for 4 h, cells were harvested to extract total protein; and the protein expressions of IκBα, phosphorylated (p)-IκBα, ERK1/2 and p-ERK1/2 were detected by western blotting. Data from one of three independent experiments are shown.
as §1
RAW264.7cells (1.0 × 10^7 cells) were incubated in dishes for 4 h, and the supernatants were replaced with fresh medium containing 1.5 μM of ODN2006 that had been preincubated with 0.5, 1.5 or 4.5 μM of SP for 15 min. Cells were sequentially cultured for another 4 h and then harvested to extract total proteins. Equal amounts of proteins from each treatment were separated by SDS-PAGE, and transferred onto 0.22 μm PVDF membranes (Bio-Rad). […]

RAW264.7 cells [3] = assay: competitive internalization experiment with non-labeled ODN2006, confocal; type: cell-based; conditions: SP 1.5 μM, FAM-2006 1.5 μM, 30 min, n = 100
Experimental: However, the results could not exclude the possibility that SP might act on FAM not ODN2006 itself. Therefore, a competitive internalization experiment using non-labeled ODN2006 was performed. Non-labeled ODN2006 and FAM-2006 have same ability to bind SP, but FAM had no such ability. If SP specifically acted on ODN2006, non-labeled ODN2006 might increase FAM-2006 internalization, and the intracellular fluorescence intensity would increase. […] Therefore, FAM-2006 could completely enter the cells, resulting in a subsequent increase in intracellular fluorescence.
Figure 7 Non-labeled ODN2006 restored internalization of FAM-labeled ODN2006 preincubated with synthetic peptide (SP) (Scale bar = 20 μm). […] The intracellular FAM-2006 (green) (A), mean fluorescence intensity (MFI) values (B) and the percentages of cells with FAM-2006 dots (green fluorescence) (C) were observed as described in Figure 5 (n = 100). […]
RAW264.7 cells (1.0 × 10^6 cells) were grown on 2-cm glass bottom dishes for 4 h, and supernatants were replaced with 1 mL of serum-free DMEM medium containing FAM-2006 (1.5 μM) that had been pre-incubated with SP (0, 0.5, 1.5 or 4.5 μM) at 37 °C for 15 min. […] The intracellular FAM-2006 (green fluorescence) was observed using a laser confocal microscope. Mean fluorescence intensity (MFI) values were calculated by the ZEN lite 2012 software.

LPS/TLR4 = assay: LPS (TLR4)-induced TNF-α and IL-6 release from RAW264.7 cells (ELISA); type: cell-based, mouse; conditions: LPS 20 ng/mL; n = 3 (Figure 2)
Experimental: as §2, §1, §3

[4] = system: CpG ODN-induced cytokine release; conditions: ref [19],[20]; cited from earlier work
Text: CpG ODN-induced diseases, such as sepsis and some autoimmune disorders, are triggered by uncontrolled release of proinflammatory cytokines, e.g., TNF-α and IL-6 [18]. […] Herein, we firstly evaluated the inhibitory effect of SP on CpG ODN-induced cytokine release in the cellular tests. Tw ... || NF-κB is one of the most important inflammatory switches that comprise a series of transcription factors that regulate the expressions of various proinflammatory cytokines (IL-1, IL-6, IL-8 and TNF-α). NF-κB activation is depended on the degradation and phosphorylation of IκBα [12].

## 5′-TGGCGCGGGCGG-3′ (DNA, all phosphorothioate, methylation of C not given here) [ODN107, a stimulatory CpG ODN developed in our laboratory]
NF-κB p65 subunit
  effect on activation of p65 (CpG ODN stimulation): significantly increased
RAW264.7 cells [1]
  effect on TNF-α and IL-6 release (CpG ODN stimulation): significantly increased

## PAM3CSK4
PAM3/TLR1/TLR2
  effect on TNF-α and IL-6 release (stimulation): significantly increased

## O=C(N/N=C/c1ccc(O)c(O)c1)c1cc2ccccc2cc1O [dynasore]
[2]; ref [24]
  cell toxicity: distinct cell toxicity
TLR signaling
  effect on TLR signaling: significant inhibitory effects on TLR signaling

## 5′-TCGTCGTTTTGTCGTTTTGTCGTT-3′ [ODN2006]
IκBα
  levels of IκBα phosphorylation and degradation (CpG ODN stimulation): significantly increased
RAW264.7 cells [3]; non-labeled ODN2006 0, 0.5, 1.5 or 4.5 μM, dose-dependent
  MFI and percentage of cells with green fluorescence (FAM-2006 + SP, competition): increased the MFI and the percentage of cells with green fluorescence
RAW264.7 cells [3]; non-labeled ODN2006 4.5 μM
  restoration of FAM-2006 internalization (competition): completely restore cell internalization of FAM-2006
NF-κB p65 subunit
  effect on activation of p65 (CpG ODN stimulation): significantly increased
RAW264.7 cells [1]
  effect on TNF-α and IL-6 release (CpG ODN stimulation): significantly increased
RAW264.7 cells [1]; ODN2006 1.5 μM, n = 3 (Figure 2)
  effect on TNF-α and IL-6 release (stimulation): significantly increased

## lipopolysaccharide [LPS]
LPS/TLR4
  effect on TNF-α and IL-6 release (stimulation): significantly increased

## CCN(CC)CCCC(C)Nc1ccnc2cc(Cl)ccc12 (stereo not shown) [chloroquine]
[4]
  effect on CpG ODN-induced cytokine release: inhibitors of CpG ODN-induced cytokine release
  effect on proinflammatory cytokines: inhibited proinflammatory cytokines

## CN(C)c1cccc2c(S(=O)(=O)NCCCCCN)cccc12 [monodansylcadaverine]
[2]
  cell toxicity: distinct cell toxicity
TLR signaling
  effect on TLR signaling: significant inhibitory effects on TLR signaling
